Measurements: patent US9839638B2, “Compositions and methods for protecting cells during cancer chemotherapy and radiotherapy” (Wisconsin Alumni Research Foundation, priority 2000, dated 2017)

What was measured:
[1] = test system: CTX induced alopecia in 7 day old rat pups; assay: Prevention of cytoxan (CTX)-induced alopecia by topical chemoprotective inducers in rat pups; type: in vivo, Sprague Dawley rats; settings: for alopecia when delivered in minoxidil vehicle (propylene glycol:ethanol:water): minoxidil carrier, compared with CTX-treated pups without inducer; for protective effect against CTX-induced hair loss (hair density): topical in nonionic liposomes day -2 to day 6, CTX i.p. day 0, scored day 7, 100% = untreated control pups
[2] = test system: chemoprotective/stress-related genes (GST-PI, GST-Mu2, GST-Ya, GST) in rat pup skin; assay: Rat stress gene cDNA expression array on skin samples of treated rat pups; type: in vivo; settings: topical 15 mM for 5 days; compared to rat pups treated with cytoxan
Method: In brief, rat pups were treated with either CTX or B-NF and at different time intervals skin samples were collected and total RNA was extracted from them. The RNA was reverse transcribed to form the respective cDNAs in the presence of ^32P dATP using primers specific for stress-related genes. The radiolabeled cDNA synthesized was used to probe a rat stress gene cDNA expression array consisting of 207 stress-related genes (Clontech) according to the manufacturer's protocol. The hybridized membrane was exposed to a phosphorimager screen and the image obtained was aligned with an orientation grid to identify the genes that are expressed. Images from control, CTX, treated and B-NF-treated animals were compared to determine the changes, if any, in the expression pattern of chemoprotective genes under these experimental conditions.

[3] = test system: 7 day old rat pups (hair loss); settings: 40 μg/gm CTX i.p., 7 day old pups, examined seven days after
Method: Lactating Sprague Dawley rats with 12 pups per mother were purchased from Harlan Sprague Dawley. To produce CTX induced alopecia, several concentrations (35, 40 45 μg/gm body weight) of CTX in water were injected i.p. in to 7 day old pups. Seven days after CTX treatment the pups were examined to determine the degree of hair loss. The pups were gently brushed on the back to remove the loose hair sticking onto the skin and photographed. The density of hair on the pups was then determined.

Structure (SMILES) | protective effect against CTX-induced hair loss (hair density) [1] [%] | also measured
O=c1cc(-c2ccccc2)oc2ccc3ccccc3c12 [B-NF, β-naphthoflavone] | 80 | protective effect when applied only on the day before cytoxan ([1]; applied only on the day before cytoxan): substantial protective effect; alopecia when delivered in minoxidil vehicle (propylene glycol:ethanol:water) [1]: as severe as the untreated CTX-treated rat pups; alopecia when delivered in minoxidil vehicle (propylene glycol:ethanol:water) ([1]; listed as BNF): hair loss equivalent to that observed in cytoxan-treated animals not pre-treated; expression level of GST-PI, GST-Mu2, GST-Ya and GST (rat homolog of human) in skin [2]: significant increase
O=P1(N(CCCl)CCCl)NCCCO1 (stereo not shown) [CTX] | – | hair loss induced [3]: 100%
COc1ccc(O)c(C(C)(C)C)c1 [BHA] | 60 | –
C[S+]([O-])CCCCN=C=S (stereo not shown) [sulphoraphane] | 5 | –
Cc1c(-c2cnccn2)ssc1=S [Oltipraz] | 50 | –
CC(C)(C)c1cc(O)ccc1O [tBHQ, tert-butylhydroquinone] | 10 | –
